Source: patent US12485132B2, “GPX4 inhibitors and senolytic compounds and uses thereof” (Rubedo Life Sciences, Inc., priority 2023, dated 2025)

Key:
[1] = tested on: senescent HEPG2 cells; assay: Senescence assay: viability of senescent HEPG2 cells; format: cell-based; details: Homo sapiens, 24-72 hours incubation, viability by CellTiter-Glo or XTT, read-out: Absolute IC50 average HEPG2_SEN IC50
Method in brief: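 A549 and HEPG2 cells made senescent by sublethal chemotherapy (bleomycin, gemcitabine, doxorubicin or 5-fluorouridine) plus recovery, verified by low EdU and high SA-β-Gal. Ten-point duplicate dosing for 24-72 h; viability by CellTiter-Glo or XTT versus untreated cells; absolute IC50 from four-parameter Hill fit.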

[2] = tested on: senescent normal human dermal fibroblasts; assay: Rescue of compound-induced cell death by ferrostatin-1 in senescent fibroblasts; format: cell-based; details: compounds at 1.11 μM, ferrostatin-1 at 0.375 and 6 μM; 24 hours; CellTiter-Glo
Description: Cell death induced by ferroptosis-inducing agents can be characterized by rescuing the cellular response with radical trapping agents that prevent the accumulation of phospholipid hydroperoxides (Stockwell et al., Cell Chem Biol 2020 27 (4): 365-375). As such, ferrostatin-1 was identified as a potent inhibitor of ferroptosis for which a free radical trapping mechanism had been reported (Skouta et al., J Am Chem Soc 2014 136 (12): 4551-6; Zika et al., ACS Cent Sci. 2017 3 (3): 232-243; and Miotto et al., Redox Biol. 2020; 101328). To determine whether compounds 18 and 32 induce ferroptosis in senescent cells, normal human dermal fibroblasts were induced to undergo senescence by treatment with a sublethal concentration of chemotherapy (bleomycin sulfate), followed by a rest period without chemotherapy similarly to previous reports (Aoshiba et al., 2003 3:436-43). Cells were maintained in DMEM media (high glucose, 4 mM L-glutamine, no sodium pyruvate) supplemented with 10% heat-inactivated fetal bovine serum in a humidified incubator at 37° C. with 5% carbon dioxide and 5% oxygen. Cellular senescence was qualified by reduced EdU (5-ethynyl-2′-deoxyuridine) incorporation and increased SA-β-Gal (senescence-associated beta-galactosidase) staining compared to proliferating untreated cells. Senescent fibroblasts were plated into 96-well plates at a density of 10,000 cells per well. The next day, ferrostatin-1 was diluted in cell medium to reach a final concentration of 0.375 and 6 μM and was added to cells. Approximately 30 minutes after the addition of ferrostatin-1, compounds 18 and 32 at 1.11 μM, or the peptidyl transfer inhibitor puromycin at 10 μM were added to cells. Cells were incubated with the compounds for 24 hours, at which point viability was quantified using the CellTiter-Glo assay (Promega). The viability for treated cells was determined relative to untreated control cells.

**Q.** What does the source list for `C#CC(F)(F)[C@]1(O)CC[C@H]2[C@@H]3CCC4=CC(=NNC(=O)NC5CC5)CCC4=C3[C@H](c3ccc(C4CC4)cc3)C[C@@]21C` [Compound 32, N-cyclopropyl-2-((8S,11S,13S,14S,17S)-11-(4-cyclopropylphenyl)-17-(1,1-difluoroprop-2-yn-1-yl)-17-hydroxy-13-methyl-1,2,6,7,8,11,12,13,14,15,16,17-dodecahydro-3H-cyclopenta[a]phenanthren-3-ylidene)hydrazine-1-carboxamide]?
**A.** IC50 [1]: 0.1 to 10 nM; inhibition by ferrostatin-1 of compound-induced cell death [2]: potently inhibits cell death induced by compounds 18 and 32
